Measurements published in PubChem BioAssay AID330 (DTP/NCI, 2004).
“And” between values parts separate entries of the source, which are not always exact repeats. Equal values may be shown once. Inconclusive results and toxic doses are left out.

System: P388 leukemia ip, CD2F1 mice, survival T/C
Assay: NCI In Vivo Anticancer Drug Screen. Data for tumor model P388 Leukemia (intraperitoneal) in CD2F1 (CDF1) mice
Conditions: endpoint: median survival time, higher = longer survival
How it was run: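 Mice carrying the transplanted tumor received test compound or vehicle. Survival was recorded in each group, and the value is the treated-group measurement divided by that of the vehicle-treated control group.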

[1] = dose: 50.0 mg/kg/injection, schedule: Q01DX005 (ip), vehicle: saline with Tween-80
[2] = dose: 100.0 mg/kg/injection, schedule: Q01DX005 (ip), vehicle: saline with Tween-80
[3] = dose: 200.0 mg/kg/injection, schedule: Q01DX005 (ip), vehicle: saline with Tween-80

In the case of `CC(=O)[C@]1(O)Cc2c(O)c3c(c(O)c2[C@@H](OC2CC(N)C(O)C(C)O2)C1)C(=O)c1c(O)cccc1C3=O` (stereo partly drawn), the T/C (dose: 0.05 mg/kg/injection, schedule: Q01DX009 (ip), vehicle: saline) is reported as 150 % of control, the T/C (dose: 0.08 mg/kg/injection, schedule: Q01DX009 (ip), vehicle: saline) is reported as 159 % of control and the T/C (dose: 0.08 mg/kg/injection, schedule: Q04DX003 (ip), vehicle: water) is reported as 100 % of control and 97 % of control. For the same compound, the T/C (dose: 0.1 mg/kg/injection, schedule: Q04DX003 (ip), vehicle: saline) was 123 % of control, the T/C (dose: 0.14 mg/kg/injection, schedule: Q01DX009 (ip), vehicle: saline) was 177 % of control and the T/C (dose: 0.16 mg/kg/injection, schedule: Q04DX003 (ip), vehicle: water) was 109 % of control and 87 % of control. The T/C (dose: 0.25 mg/kg/injection, schedule: Q04DX003 (ip), vehicle: water) was 119 % of control and 94 % of control, the T/C (dose: 0.3 mg/kg/injection, schedule: Q04DX003 (ip), vehicle: saline) was 154 % of control and the T/C (dose: 0.32 mg/kg/injection, schedule: Q04DX003 (ip), vehicle: saline) was 159 % of control. The T/C (dose: 0.36 mg/kg/injection, schedule: Q04DX003 (ip), vehicle: saline) was 160 % of control and 173 % of control, the T/C (dose: 0.36 mg/kg/injection, schedule: Q04DX003 (ip), vehicle: water) was 161 % of control and the T/C (dose: 0.39 mg/kg/injection, schedule: Q01DX001 (ip), vehicle: saline) was 159 % of control. The T/C (dose: 0.39 mg/kg/injection, schedule: Q01DX009 (ip), vehicle: saline) was 100 % of control, the T/C (dose: 0.39 mg/kg/injection, schedule: Q04DX003 (ip), vehicle: saline) was 163 % of control and the T/C (dose: 0.4 mg/kg/injection, schedule: Q04DX003 (ip), vehicle: saline) was 154 % of control. The T/C (dose: 0.43 mg/kg/injection, schedule: Q01DX001 (ip), vehicle: saline) was 152 % of control and 160 % of control, the T/C (dose: 0.43 mg/kg/injection, schedule: Q04DX003 (ip), vehicle: saline) was 165 % of control and the T/C (dose: 0.5 mg/kg/injection, schedule: Q04DX003 (ip), vehicle: water) was 116 % of control and 124 % of control. The T/C (dose: 0.54 mg/kg/injection, schedule: Q04DX003 (ip), vehicle: saline) was 161 % of control, the T/C (dose: 0.6 mg/kg/injection, schedule: Q04DX003 (ip), vehicle: saline) was 154 % of control and 168 % of control and the T/C (dose: 0.6 mg/kg/injection, schedule: Q04DX003 (ip), vehicle: water) was 170 % of control. For the same compound, the T/C (dose: 0.6 mg/kg/injection, schedule: Q04DX003 (oral), vehicle: saline) was 112 % of control, the T/C (dose: 0.64 mg/kg/injection, schedule: Q04DX003 (ip), vehicle: water) was 109 % of control and 115 % of control and 274 % of control and the T/C (dose: 0.65 mg/kg/injection, schedule: Q01DX001 (ip), vehicle: saline) was 172 % of control. The T/C (dose: 0.65 mg/kg/injection, schedule: Q04DX003 (ip), vehicle: saline) was 172 % of control, the T/C (dose: 0.72 mg/kg/injection, schedule: Q01DX001 (ip), vehicle: saline) was 161 % of control and 180 % of control and the T/C (dose: 0.72 mg/kg/injection, schedule: Q04DX003 (ip), vehicle: saline) was 167 % of control. The T/C (dose: 0.9 mg/kg/injection, schedule: Q04DX003 (ip), vehicle: saline) was 160 % of control and 186 % of control, the T/C (dose: 1.0 mg/kg/injection, schedule: Q04DX003 (ip), vehicle: saline) was 92 % of control and 94 % of control and the T/C (dose: 1.0 mg/kg/injection, schedule: Q04DX003 (ip), vehicle: water) was 102 % of control. For the same compound, the T/C (dose: 1.0 mg/kg/injection, schedule: Q04DX003 (oral), vehicle: saline) was 110 % of control, the T/C (dose: 1.08 mg/kg/injection, schedule: Q01DX001 (ip), vehicle: saline) was 95 % of control and the T/C (dose: 1.08 mg/kg/injection, schedule: Q04DX003 (ip), vehicle: saline) was 100 % of control. For the same compound, the T/C (dose: 1.2 mg/kg/injection, schedule: Q01DX001 (ip), vehicle: saline) was 105 % of control, the T/C (dose: 1.2 mg/kg/injection, schedule: Q01DX001 (oral), vehicle: saline) was 110 % of control and the T/C (dose: 1.2 mg/kg/injection, schedule: Q04DX003 (ip), vehicle: saline) was 110 % of control. For the same compound, the T/C (dose: 1.5 mg/kg/injection, schedule: Q04DX003 (ip), vehicle: saline) was 108 % of control, the T/C (dose: 1.67 mg/kg/injection, schedule: Q04DX003 (oral), vehicle: saline) was 115 % of control and the T/C (dose: 2.0 mg/kg/injection, schedule: Q01DX001 (oral), vehicle: saline) was 102 % of control. The T/C (dose: 2.0 mg/kg/injection, schedule: Q04DX003 (ip), vehicle: water) was 116 % of control, the T/C (dose: 2.78 mg/kg/injection, schedule: Q04DX003 (oral), vehicle: saline) was 106 % of control and 110 % of control and the T/C (dose: 3.2 mg/kg/injection, schedule: Q04DX003 (ip), vehicle: saline) was 105 % of control. The T/C (dose: 3.33 mg/kg/injection, schedule: Q01DX001 (oral), vehicle: saline) was 111 % of control and 116 % of control, the T/C (dose: 4.63 mg/kg/injection, schedule: Q04DX003 (oral), vehicle: saline) was 113 % of control and the T/C (dose: 5.56 mg/kg/injection, schedule: Q01DX001 (oral), vehicle: saline) was 114 % of control. For the same compound, the T/C (dose: 6.4 mg/kg/injection, schedule: Q04DX003 (ip), vehicle: saline) was 99 % of control, the T/C (dose: 7.72 mg/kg/injection, schedule: Q04DX003 (oral), vehicle: saline) was 166 % of control and the T/C (dose: 9.26 mg/kg/injection, schedule: Q01DX001 (oral), vehicle: saline) was 152 % of control. The T/C (dose: 12.9 mg/kg/injection, schedule: Q04DX003 (oral), vehicle: saline) was 164 % of control, the T/C (dose: 6.25 micrograms/kg/injection, schedule: Q04DX003 (ip), vehicle: saline) was 120 % of control and the T/C (dose: 15.0 micrograms/kg/injection, schedule: Q04DX003 (ip), vehicle: saline) was 111 % of control. For the same compound, the T/C (dose: 25.0 micrograms/kg/injection, schedule: Q04DX003 (ip), vehicle: saline) was 116 % of control, the T/C (dose: 31.0 micrograms/kg/injection, schedule: Q04DX003 (ip), vehicle: saline) was 111 % of control and the T/C (dose: 50.0 micrograms/kg/injection, schedule: Q04DX003 (ip), vehicle: saline) was 111 % of control. For the same compound, the T/C (dose: 62.0 micrograms/kg/injection, schedule: Q04DX003 (ip), vehicle: saline) was 107 % of control, the T/C (dose: 125.0 micrograms/kg/injection, schedule: Q04DX003 (ip), vehicle: saline) was 107 % of control and the T/C (dose: 200.0 micrograms/kg/injection, schedule: Q04DX003 (ip), vehicle: saline) was 119 % of control. For the same compound, the T/C (dose: 500.0 micrograms/kg/injection, schedule: Q04DX003 (ip), vehicle: saline) was 156 % of control, the T/C (dose: 800.0 micrograms/kg/injection, schedule: Q04DX003 (ip), vehicle: saline) was 122 % of control and the T/C (dose: 1000.0 micrograms/kg/injection, schedule: Q04DX003 (ip), vehicle: saline) was 166 % of control. The T/C (dose: 2000.0 micrograms/kg/injection, schedule: Q04DX003 (ip), vehicle: saline) was 88 % of control, the T/C (dose: 3200.0 micrograms/kg/injection, schedule: Q04DX003 (ip), vehicle: saline) was 103 % of control and the T/C (dose: 6400.0 micrograms/kg/injection, schedule: Q04DX003 (ip), vehicle: saline) was 116 % of control.

With `O=C(NC(=O)c1c(F)cccc1F)Nc1ccc(C(O)(C(F)(F)F)C(F)(F)F)cc1` the T/C [1] was 102 % of control, the T/C [2] was 100 % of control and the T/C [3] was 109 % of control.

With `O=C(Cc1cccc2c(=O)cc(-c3ccccc3)oc12)OCCN1CCOCC1` the T/C (dose: 50.0 mg/kg/injection, schedule: Q01DX009 (ip), vehicle: saline) was 99 % of control and the T/C (dose: 100.0 mg/kg/injection, schedule: Q01DX009 (ip), vehicle: saline) was 100 % of control.

In the case of `CCCc1c(OC)c(OC)c2c(c1C(C)=O)OCO2`, the T/C [1] is reported as 100 % of control, the T/C [2] is reported as 100 % of control and the T/C [3] is reported as 104 % of control.

For `COc1nc(NC2OC(COC(C)=O)C(OC(C)=O)C(OC(C)=O)C2OC(C)=O)c2c(O)coc2n1` (stereo not drawn), the T/C (dose: 100.0 mg/kg/injection, schedule: Q01DX001 (ip), vehicle: saline with Tween-80) was 115 % of control, the T/C (dose: 200.0 mg/kg/injection, schedule: Q01DX001 (ip), vehicle: saline with Tween-80) was 106 % of control and the T/C (dose: 400.0 mg/kg/injection, schedule: Q01DX001 (ip), vehicle: saline with Tween-80) was 92 % of control.

With `O=C(Nn1c(=O)[nH]c2ccccc2c1=O)c1ccc(Cl)cc1` the T/C (dose: 60.0 mg/kg/injection, schedule: Q01DX005 (ip), vehicle: Klucel (hydroxypropylcellulose) (HPC)) was 98 % of control, the T/C (dose: 120.0 mg/kg/injection, schedule: Q01DX005 (ip), vehicle: Klucel (hydroxypropylcellulose) (HPC)) was 93 % of control and the T/C (dose: 240.0 mg/kg/injection, schedule: Q01DX005 (ip), vehicle: Klucel (hydroxypropylcellulose) (HPC)) was 90 % of control.

`CC(=O)CC(=NC(C)(C)C)Nc1ncc(Cl)c2ccccc12` was tested, and the T/C [1] was 94 % of control, the T/C [2] was 92 % of control and the T/C [3] was 97 % of control.

For `CC1(C)OCC(N)[C@@H](O)CO1` (stereo partly drawn), the T/C (dose: 60.0 mg/kg/injection, schedule: Q01DX005 (ip), vehicle: saline) was 100 % of control, the T/C (dose: 120.0 mg/kg/injection, schedule: Q01DX005 (ip), vehicle: saline) was 96 % of control and the T/C (dose: 240.0 mg/kg/injection, schedule: Q01DX005 (ip), vehicle: saline) was 100 % of control.
